The values below are quoted from earlier work in patent publication US11324822B2, “Combination of HDAC inhibitor and anti-PD-1 antibody for treatment of cancer” (priority 2015, dated 2022).

The subject of one data set is histone acetylation. Conditions: following the administration of entinostat.
The conditions of data set [1]: in vivo.

For the compound `Nc1ccccc1NC(=O)c1ccc(CNC(=O)OCc2cccnc2)cc1` [Entinostat, N-(2-aminophenyl)-4-[N-(pyridine-3-yl)methoxycarbonylamino-methyl]-benzamide], the “changes in histone acetylation following administration” value in the data set on histone acetylation is “persist for several weeks”. Further, the half-life entry in data set [1] was “about 100 hours”.
